Each compound was assayed on Phytophthora infestans—PHYTIN (assay: whole plant or invertebrate). Conditions: Phytophthora, in Solanum lycopersicum, 24 h, read-out: PHYTIN in vivo 1 Day Protectant.
Assay type: in vivo

Compound	pest or weed control at 100 ppm [%]
COc1ccnc(C(=O)NC2CC(C)(C)C3OC3[C@H](C)[C@H]2C)c1O (some centres unmarked) [Compound 280]	25 to 74
CC(NC(=O)c1ccncc1O)c1ccc(OC(F)(F)F)cc1 (centres unmarked) [Compound 511]	< 25
COC(=O)C(COC(=O)C(C)Cc1ccccc1)NC(=O)c1nccc(OC)c1O (centres unmarked) [Compound 345]	< 25
COc1ccnc(C(=O)NC2CC(C)(C)CC(C)(COCC(Cl)CCl)C2)c1O (centres unmarked) [Compound 257]	< 25

These compounds were tested on Stagonospora nodorum (Leptosphaeria nodorum—LEPTNO) (assay: In vitro fungal growth inhibition, Stagonospora nodorum (LEPTNO)). Conditions: Leptosphaeria; 25 ppm in growth medium; read-out: LEPTNO in vitro Growth Inhibition.
Assay type: cell-based

Compound	inhibition at 25 ppm [%]
COc1ccnc(C(=O)NC2CC(C)(C)C3OC3[C@H](C)[C@H]2C)c1O (some centres unmarked) [Compound 280]	< 80
COC(=O)C(COC(=O)C(C)Cc1ccccc1)NC(=O)c1nccc(OC)c1O (centres unmarked) [Compound 345]	< 80
COc1ccnc(C(=O)NC2CC(C)(C)CC(C)(COCC(Cl)CCl)C2)c1O (centres unmarked) [Compound 257]	> 80

Same assay, conditions: Leptosphaeria; 25 ppm in the growth medium; read-out: LEPTNO in vitro Growth Inhibition

Compound	inhibition at 25 ppm [%]
CC(NC(=O)c1ccncc1O)c1ccc(OC(F)(F)F)cc1 (centres unmarked) [Compound 511]	< 80

These compounds were tested on Mycosphaerella graminicola (Septoria tritici—SEPTTR) (assay: In vitro fungal growth inhibition, Mycosphaerella graminicola (SEPTTR)). Conditions: Zymoseptoria tritici; 25 ppm in growth medium; read-out: SEPTTR in vitro Growth Inhibition.
Assay type: cell-based

Compound	inhibition at 25 ppm [%]
COc1ccnc(C(=O)NC2CC(C)(C)C3OC3[C@H](C)[C@H]2C)c1O (some centres unmarked) [Compound 280]	< 80
COC(=O)C(COC(=O)C(C)Cc1ccccc1)NC(=O)c1nccc(OC)c1O (centres unmarked) [Compound 345]	< 80
COc1ccnc(C(=O)NC2CC(C)(C)CC(C)(COCC(Cl)CCl)C2)c1O (centres unmarked) [Compound 257]	> 80

Same assay, conditions: Zymoseptoria tritici; 25 ppm in the growth medium; read-out: SEPTTR in vitro Growth Inhibition

Compound	inhibition at 25 ppm [%]
CC(NC(=O)c1ccncc1O)c1ccc(OC(F)(F)F)cc1 (centres unmarked) [Compound 511]	< 80

The compounds below were run on Phytophthora infestans (PHYTIN) (assay: microbe, parasite or virus in culture). Conditions: Phytophthora infestans, read-out: PHYTIN in vitro Growth Inhibition.
Assay type: cell-based

Compound	inhibition at 25 ppm [%]
COc1ccnc(C(=O)NC2CC(C)(C)C3OC3[C@H](C)[C@H]2C)c1O (some centres unmarked) [Compound 280]	< 80
CC(NC(=O)c1ccncc1O)c1ccc(OC(F)(F)F)cc1 (centres unmarked) [Compound 511]	< 80
COC(=O)C(COC(=O)C(C)Cc1ccccc1)NC(=O)c1nccc(OC)c1O (centres unmarked) [Compound 345]	< 80
COc1ccnc(C(=O)NC2CC(C)(C)CC(C)(COCC(Cl)CCl)C2)c1O (centres unmarked) [Compound 257]	> 80

What follows are compounds tested on Septoria tritici—SEPTTR (assay: Leaf Blotch of Wheat, in vivo whole plant, 24 Hour Protectant). Conditions: Zymoseptoria tritici, 24 h, 100 ppm spray, 24 hour protectant, wheat; control of fungal infection vs untreated plants; read-out: SEPTTR in vivo 1 Day Protectant.

Compound	pest or weed control at 100 ppm [%]
COc1ccnc(C(=O)NC2CC(C)(C)C3OC3[C@H](C)[C@H]2C)c1O (some centres unmarked) [Compound 280]	25 to 74
COc1ccnc(C(=O)NC2CC(C)(C)CC(C)(COCC(Cl)CCl)C2)c1O (centres unmarked) [Compound 257]	25 to 74

Same assay, conditions: Zymoseptoria tritici, 24 h, 100 ppm spray, wheat, 24 hour protectant; control of fungal infection vs untreated plants; read-out: SEPTTR in vivo 1 Day Protectant

Compound	pest or weed control at 100 ppm [%]
COC(=O)C(COC(=O)C(C)Cc1ccccc1)NC(=O)c1nccc(OC)c1O (centres unmarked) [Compound 345]	< 25

Same assay, conditions: Zymoseptoria tritici, 24 h, wheat plants sprayed at 100 ppm, inoculated after 24 hours; control of fungal infection vs untreated plants; read-out: SEPTTR in vivo 1 Day Protectant

Compound	pest or weed control at 100 ppm [%]
CC(NC(=O)c1ccncc1O)c1ccc(OC(F)(F)F)cc1 (centres unmarked) [Compound 511]	< 25

What follows are compounds tested on Ustilago maydis (USTIMA) (assay: microbe, parasite or virus in culture). Conditions: Mycosarcoma maydis, read-out: USTIMA in vitro Growth Inhibition.
Assay type: cell-based

Compound	inhibition at 25 ppm [%]
COc1ccnc(C(=O)NC2CC(C)(C)C3OC3[C@H](C)[C@H]2C)c1O (some centres unmarked) [Compound 280]	< 80
CC(NC(=O)c1ccncc1O)c1ccc(OC(F)(F)F)cc1 (centres unmarked) [Compound 511]	< 80
COC(=O)C(COC(=O)C(C)Cc1ccccc1)NC(=O)c1nccc(OC)c1O (centres unmarked) [Compound 345]	< 80
COc1ccnc(C(=O)NC2CC(C)(C)CC(C)(COCC(Cl)CCl)C2)c1O (centres unmarked) [Compound 257]	> 80

What follows are compounds tested on Puccinia recondita—PUCCRT (assay: Brown Rust of Wheat, in vivo whole plant, 24 Hour Protectant). Conditions: Puccinia; 100 ppm spray, 24 hour protectant, wheat; control of fungal infection vs untreated plants; read-out: PUCCRT in vivo 1 Day Protectant.

Compound	pest or weed control at 100 ppm [%]
COc1ccnc(C(=O)NC2CC(C)(C)C3OC3[C@H](C)[C@H]2C)c1O (some centres unmarked) [Compound 280]	25 to 74
COc1ccnc(C(=O)NC2CC(C)(C)CC(C)(COCC(Cl)CCl)C2)c1O (centres unmarked) [Compound 257]	25 to 74

Same assay, conditions: Puccinia; 100 ppm spray, wheat, 24 hour protectant; control of fungal infection vs untreated plants; read-out: PUCCRT in vivo 1 Day Protectant

Compound	pest or weed control at 100 ppm [%]
COC(=O)C(COC(=O)C(C)Cc1ccccc1)NC(=O)c1nccc(OC)c1O (centres unmarked) [Compound 345]	25 to 74

Same assay, conditions: Puccinia; wheat plants sprayed at 100 ppm, inoculated after 24 hours; control of fungal infection vs untreated plants; read-out: PUCCRT in vivo 1 Day Protectant

Compound	pest or weed control at 100 ppm [%]
CC(NC(=O)c1ccncc1O)c1ccc(OC(F)(F)F)cc1 (centres unmarked) [Compound 511]	< 25

Each compound was assayed on Magnaporthe grisea (Pyricularia oryzae—PYRIOR) (assay: microbe, parasite or virus in culture). Conditions: Pyricularia oryzae, read-out: PYRIOR in vitro Growth Inhibition.
Assay type: cell-based

Compound	inhibition at 25 ppm [%]
COc1ccnc(C(=O)NC2CC(C)(C)C3OC3[C@H](C)[C@H]2C)c1O (some centres unmarked) [Compound 280]	< 80
CC(NC(=O)c1ccncc1O)c1ccc(OC(F)(F)F)cc1 (centres unmarked) [Compound 511]	< 80
COC(=O)C(COC(=O)C(C)Cc1ccccc1)NC(=O)c1nccc(OC)c1O (centres unmarked) [Compound 345]	< 80
COc1ccnc(C(=O)NC2CC(C)(C)CC(C)(COCC(Cl)CCl)C2)c1O (centres unmarked) [Compound 257]	< 80

Each compound was assayed on Erysiphe graminis—ERYSGT (assay: Powdery Mildew of Wheat, in vivo whole plant, 24 Hour Protectant). Conditions: Erysiphe; 100 ppm spray, 24 hour protectant, wheat; control of fungal infection vs untreated plants; read-out: ERYSGT in vivo 1 Day Protectant.

Compound	pest or weed control at 100 ppm [%]
COc1ccnc(C(=O)NC2CC(C)(C)C3OC3[C@H](C)[C@H]2C)c1O (some centres unmarked) [Compound 280]	< 25
COc1ccnc(C(=O)NC2CC(C)(C)CC(C)(COCC(Cl)CCl)C2)c1O (centres unmarked) [Compound 257]	< 25

Same assay, conditions: Erysiphe; 100 ppm spray, wheat, 24 hour protectant; control of fungal infection vs untreated plants; read-out: ERYSGT in vivo 1 Day Protectant

Compound	pest or weed control at 100 ppm [%]
COC(=O)C(COC(=O)C(C)Cc1ccccc1)NC(=O)c1nccc(OC)c1O (centres unmarked) [Compound 345]	< 25

Same assay, conditions: Erysiphe; wheat plants sprayed at 100 ppm, inoculated after 24 hours; control of fungal infection vs untreated plants; read-out: ERYSGT in vivo 1 Day Protectant

Compound	pest or weed control at 100 ppm [%]
CC(NC(=O)c1ccncc1O)c1ccc(OC(F)(F)F)cc1 (centres unmarked) [Compound 511]	< 25

Each compound was assayed on Rhizoctonia solani (RHIZSO) (assay: microbe, parasite or virus in culture). Conditions: Rhizoctonia solani, read-out: RHIZSO in vitro Growth Inhibition.
Assay type: cell-based

Compound	inhibition at 25 ppm [%]
COc1ccnc(C(=O)NC2CC(C)(C)C3OC3[C@H](C)[C@H]2C)c1O (some centres unmarked) [Compound 280]	< 80
CC(NC(=O)c1ccncc1O)c1ccc(OC(F)(F)F)cc1 (centres unmarked) [Compound 511]	< 80
COC(=O)C(COC(=O)C(C)Cc1ccccc1)NC(=O)c1nccc(OC)c1O (centres unmarked) [Compound 345]	< 80
COc1ccnc(C(=O)NC2CC(C)(C)CC(C)(COCC(Cl)CCl)C2)c1O (centres unmarked) [Compound 257]	< 80

These compounds were tested on Leptosphaeria nodorum—LEPTNO (assay: Glume Blotch of Wheat, in vivo whole plant, 24 Hour Protectant). Conditions: 100 ppm spray, 24 hour protectant, wheat; control of fungal infection vs untreated plants.

Compound	LEPTNO in vivo 1 Day Protectant
COc1ccnc(C(=O)NC2CC(C)(C)CC(C)(COCC(Cl)CCl)C2)c1O (centres unmarked) [Compound 257]	+ +

Same assay, conditions: Leptosphaeria; 100 ppm spray, 24 hour protectant, wheat; control of fungal infection vs untreated plants; read-out: LEPTNO in vivo 1 Day Protectant

Compound	pest or weed control at 100 ppm [%]
COc1ccnc(C(=O)NC2CC(C)(C)C3OC3[C@H](C)[C@H]2C)c1O (some centres unmarked) [Compound 280]	25 to 74

Same assay, conditions: Leptosphaeria; 100 ppm spray, wheat, 24 hour protectant; control of fungal infection vs untreated plants; read-out: LEPTNO in vivo 1 Day Protectant

Compound	pest or weed control at 100 ppm [%]
COC(=O)C(COC(=O)C(C)Cc1ccccc1)NC(=O)c1nccc(OC)c1O (centres unmarked) [Compound 345]	< 25

Same assay, conditions: Leptosphaeria; wheat plants sprayed at 100 ppm, inoculated after 24 hours; control of fungal infection vs untreated plants; read-out: LEPTNO in vivo 1 Day Protectant

Compound	pest or weed control at 100 ppm [%]
CC(NC(=O)c1ccncc1O)c1ccc(OC(F)(F)F)cc1 (centres unmarked) [Compound 511]	< 25
